System: hepatocytes
Assay: Seq-Well scRNA-Seq of hepatocytes after APAP overdose (signature scores, DEG vs untreated)
Assay type: in vivo, mouse
Conditions: APAP vs UT, composite DEG

CC(=O)Nc1ccc(O)cc1 [APAP, acetaminophen]
Ndufs4 logFC: −0.3132
Ndufs8 logFC: −0.3614
Ndufv2 logFC: −0.3276
Ndufv3 logFC: −0.3971
Neat1 logFC: 0.6374
Nedd4l logFC: 0.2812
Nedd8 logFC: −0.3564
Nfe2l1 logFC: 0.2703
Nid1 logFC: 0.3426
Nme1 logFC: −0.4329
Nop10 logFC: −0.2919
Nop58 logFC: 0.6634
Nr0b2 logFC: −0.293
Nr1d2 logFC: 0.4306
Nr1i3 logFC: 0.4259
Nr2f6 logFC: −0.3754
Nrip1 logFC: 0.2729
Oaf logFC: −0.7329
Oat logFC: −1.225
Orm1 logFC: 0.3651
Osbpl1a logFC: 0.2728
Osbpl9 logFC: 0.2788
Ostc logFC: 0.2658
Otc logFC: −0.299
P4hb logFC: 0.4052
Pabpc1 logFC: 0.4949
Pacsin2 logFC: 0.3708
Padi3 logFC: 0.2957
Pak2 logFC: 0.2815
Palld logFC: 0.3414
Pank1 logFC: −0.3527
Paqr9 logFC: −0.3323
Pbld1 logFC: −0.4425
Pcbd1 logFC: −0.6878
Pcbp2 logFC: 0.3103
Pck1 logFC: −0.6522
Pdia3 logFC: 0.5938
Pecr logFC: −0.3981
Pex11a logFC: 0.3508
Pgrmc1 logFC: 0.3502
Phc2 logFC: 0.312
Phf20l1 logFC: 0.3085
Phlda1 logFC: 0.5492
Pigr logFC: 0.3868
Pipox logFC: 0.2725
Pla2g7 logFC: 0.2823
Plek logFC: 0.3089
Plin2 logFC: 1.461
Plin5 logFC: 0.3521
Plk3 logFC: 0.4166
Plscr1 logFC: 0.4445
Pnkd logFC: −0.2928
Pnpla7 logFC: −0.3016
Pnpla8 logFC: 0.2956
Pon1 logFC: −0.6858
Por logFC: 0.336
Ppara logFC: 0.3589
Ppp1r12a logFC: 0.3563
Prdx1 logFC: −0.5292
Prdx4 logFC: −0.4176
Prdx5 logFC: −0.2821
Prkaa2 logFC: 0.2636
Prodh2 logFC: 0.3453
Prox1 logFC: 0.2663
Proz logFC: 0.2632
Prrc2c logFC: 0.4393
Psat1 logFC: 0.3012
Psen2 logFC: −0.9474
Psmb1 logFC: −0.3585
Psmb3 logFC: −0.3303
Psmb6 logFC: −0.3194
Psme1 logFC: −0.394
Psme4 logFC: 0.2626
Ptp4a1 logFC: 0.2627
Ptpn2 logFC: 0.2734
Ptprc logFC: 0.4165
Ptprf logFC: 0.3071
Purb logFC: 0.3525
Pxk logFC: 0.2819
Pxmp2 logFC: −0.3671
Pzp logFC: 0.416
Rarres1 logFC: −0.4556
Rbm25 logFC: 0.4215
Rcan1 logFC: 0.7073
Rdh7 logFC: −0.4186
Rdx logFC: 0.3736
Reep3 logFC: 0.409
Reep6 logFC: 0.5143
Rell1 logFC: 0.5912
Retnlg logFC: 0.3751
Rexo2 logFC: −0.3263
Rgn logFC: −1.573
Rgs16 logFC: 0.3226
Rlim logFC: 0.3102
Rnase4 logFC: −1.049
Rnaseh2c logFC: −0.3257
Rnf13 logFC: 0.2553
Rnf144a logFC: 0.313
Romo1 logFC: −0.3359
Rpl4 logFC: 0.2839
Rpl13a logFC: −0.3815
Rpl13 logFC: −0.2997
Rpl14 logFC: −0.2776
Rpl38 logFC: 0.2543
Rplp0 logFC: −0.4309
Rps3 logFC: −0.3493
Rps8 logFC: −0.2746
Rps9 logFC: −0.3718
Rps10 logFC: −0.3369
Rps15 logFC: −0.4552
Rps18 logFC: −0.4885
Rps21 logFC: −0.3645
Rps27l logFC: −0.8659
Rsp14 logFC: −0.4021
Saa2 logFC: 0.9645
Sardh logFC: 0.2692
Sbno1 logFC: 0.3671
Sc4mol logFC: −0.3262
Scaf11 logFC: 0.3598
Scd1 logFC: 0.7267
Sco2 logFC: −0.2929
Scp2 logFC: −0.5191
Sdhb logFC: −0.2896
Sdhc logFC: 0.3944
Sdr9c7 logFC: −0.26
Sdsl logFC: 0.2593
Sec14l2 logFC: −0.7897
Sec31a logFC: 0.263
Sec61b logFC: −0.2903
Sec62 logFC: 0.2516
Sel1l logFC: 0.336
Selk logFC: −0.3383
Serpina1b logFC: −0.3018
Serpina1c logFC: −0.4026
Serpina3m logFC: 0.9674
Serpina3n logFC: 0.8483
Serpina10 logFC: 0.565
Serpina12 logFC: −0.4534
Serpinf1 logFC: 0.3196
Serping1 logFC: 0.4128
Sf1 logFC: 0.3023
Sfpq logFC: 0.394
Sgk1 logFC: 0.2843
Sh3bgrl logFC: 0.2513
Sh3glb1 logFC: 0.326
Shb logFC: 0.3152
Shmt1 logFC: −0.3932
Sirt3 logFC: −0.346
Slc4a4 logFC: 0.4203
Slc7a2 logFC: 0.3526
Slc10a1 logFC: −0.3258
Slc16a6 logFC: 0.9114
Slc22a1 logFC: −0.7979
Slc22a30 logFC: −0.3746
Slc25a10 logFC: 0.3433
Slc25a13 logFC: 0.2855
Slc25a20 logFC: 0.38
Slc25a47 logFC: 0.5027
Slc27a2 logFC: 0.3853
Slc27a5 logFC: 0.337
Slc38a10 logFC: 0.2855
Slc39a14 logFC: 1.013
Slc40a1 logFC: 0.467
Slco1b2 logFC: −1.087
Slirp logFC: −0.3085
Smap2 logFC: 0.3489
Smdt1 logFC: −0.3673
Smg1 logFC: 0.335
Snord13 logFC: 0.2611
Snx10 logFC: 0.2856
Sod1 logFC: −0.4393
Sord logFC: −0.3836
Spp2 logFC: −0.3821
Sptbn1 logFC: 0.4227
Srebf1 logFC: 0.2762
Srgn logFC: 0.9341
Srp72 logFC: 0.3107
Srpr logFC: 0.3052
Srsf11 logFC: 0.4012
Ssr3 logFC: 0.5218
St3gal5 logFC: 0.6076
Stbd1 logFC: −0.2732
Steap4 logFC: 0.476
Stk17b logFC: 0.2911
Stom logFC: 0.3232
Stt3b logFC: 0.3194
Suco logFC: 0.251
Suds3 logFC: 0.2539
Sult1d1 logFC: 0.4599
Supt6 logFC: 0.2913
Surf4 logFC: 0.2586
Syncrip logFC: 0.2748
Tars logFC: 0.4921
Tbl1xr1 logFC: 0.3075
Tcea3 logFC: −0.355
Tceb2 logFC: −0.3207
Tfpi2 logFC: −0.3663
Tgm2 logFC: 0.3993
Tgoln1 logFC: 0.3883
Timm8b logFC: −0.3936
Timm13 logFC: −0.433
Tjp1 logFC: 0.2862
